The results in this text go back to US20220289686A1, “COMPOSITIONS OF NRF2 INHIBITING AGENTS AND METHODS OF USE THEREOF” (Washington University, priority 2021, published 2022).

Read-outs that look alike come from different tables or passages of the source.

The IC50 is the midpoint of a concentration-inhibition curve.

The test concerns NRF2 activity in H1299-NQO1-YFP cells. Kind of test: NRF2 activity reporter IC50 in H1299-NQO1-YFP cells vs NRF2 pathway activators (IncuCyte, YFP/mCherry). The class given is cell-based. Here is the method:
Readings were taken every 2 hours for at least 24 hours. […] Readings were also taken every 2 hours for 96 hours in and IncuCyte S3.
YFP total intensity (correlating to NRF2 activity) was normalized to NLS-mCherry (cell number) total intensity to give a ratio (YFP/mCherry). Ratios at one time point at least 24 hours post compounds were added were used. These numbers were then plotted in Graphpad Prism to calculate IC50s. […] From three biological replicates, percent confluence was used for proliferation assays to calculate IC50s, calculations performed using Graphpad Prism.

The mark [1] stands for this setting: Table 1, activator CDDO 0.1 μM, H1299-NQO1-YFP cells, read-out: CDDO 0.1 μM IC50 μM ± SEM.
Where [2] appears, read: Table 1, activator SULF 2 μM, H1299-NQO1-YFP cells, read-out: SULF 2 μM IC50 μM ± SEM.
Where [3] appears, read: Table 1 and text, average over activators CDDO, PRL295, SULF, H1299-NQO1-YFP cells, read-out: Avg IC50.
Where [4] appears, read: Table 6 NRF2 inhibitors, read-out: Avg IC50.
Where [5] appears, read: read-out: PRL295 5 μM IC50 AM ± SEM, Table 1, activator PRL295 5 μM, H1299-NQO1-YFP cells.

With `CCC1=NC(N)=NC(=O)C1c1ccc(Cl)cc1` (stereo not shown) [WCDD112, 2-amino-5-(4-chlorophenyl)-6-ethylpyrimidin-4(5H)-one], the half-maximal inhibitory concentration (IC50) reads like this: under setting [1], 19.8 ± 0.338 µM; under setting [2], 10.92 ± 0.0655 µM; under setting [3], 13.9 µM; under setting [4], 13.9 µM; under setting [5], 10.8 ± 0.62 µM.

On to `CCc1nc(N)nc(N)c1-c1ccc(C(C)(F)F)cc1` [WCDD105, 5-(4-(1,1-difluoroethyl)phenyl)-6-ethylpyrimidine-2,4-diamine], for which the IC50 by setting is: under setting [1], 5.12 ± 0.074 µM; under setting [2], 3.279 ± 0.006 µM; under setting [3], 4.04 µM; under setting [4], 4.04 µM; under setting [5], 3.74 ± 0.499 µM.

For the compound `CCc1nc(N)nc(N)c1-c1cccc(Cl)c1F` [WCDD121, 5-(3-chloro-2-fluorophenyl)-6-ethylpyrimidine-2,4-diamine], the IC50 was > 5 µM under setting [3] and > 5 µM under setting [4].

As for `CCc1nc(N)nc(N)c1-c1ccccc1` [WCDD111, 6-ethyl-5-phenylpyrimidine-2,4-diamine], the IC50 reads like this: under setting [1], 1.1 ± 0.016 µM; under setting [2], 0.91 ± 0.01 µM; under setting [3], 1.18 µM; under setting [4], 1.18 µM; under setting [5], 1.51 ± 0.0329 µM.

On to `C#CCCC1(CCC(=O)NCCCc2nc(N)nc(N)c2-c2cccc(C(F)(F)F)c2)N=N1` [WCDD136, 3-(3-(but-3-yn-1-yl)-3H-diazirin-3-yl)-N-(3-(2,6-diamino-5-(3-(trifluoromethyl)phenyl)pyrimidin-4-yl)propyl)propanamide], for which the IC50 by setting is: under setting [3], ~0.15 µM; under setting [5], 0.153 ± 0.002 µM.

For `NCCCc1nc(N)nc(N)c1-c1cccc(C(F)(F)F)c1` [WCDD135, 6-(3-aminopropyl)-5-(3-(trifluoromethyl)phenyl)pyrimidine-2,4-diamine], the IC50 under setting [3] was > 20 µM.

Regarding `Nc1nc(N)c(-c2cccc(C(F)(F)F)c2)c(CCCNC(=O)CCCC[C@H]2SCC3NC(O)NC32)n1` (stereo partly drawn) [WCDD137, N-(3-(2,6-diamino-5-(3-(trifluoromethyl)phenyl)pyrimidin-4-yl)propyl)-5-((4R)-2-hydroxyhexahydro-1H-thieno[3,4-d]imidazol-4-yl)pentanamide], the IC50 under setting [3] came out at 4.84 µM and the IC50 under setting [5] was determined as 4.84 ± 0.284 µM.

As for `Nc1ncc(-c2ccc(Cl)cc2)c(N)n1` [WCDD103, 5-(4-chlorophenyl)pyrimidine-2,4-diamine], the IC50 is, setting by setting: under setting [1], 16.9 ± 2.56 µM; under setting [2], 12.5 ± 0.798 µM; under setting [3], 13.1 µM; under setting [4], 13.1 µM; under setting [5], 9.99 ± 0.0737 µM.

In the case of `CCc1nc(N)nc(N)c1-c1ccc(S(=O)(=O)C2CC3CC3C2)cc1` (stereo not shown) [WCDD108, 5-(4-(bicyclo[3.1.0]hexan-3-ylsulfonyl)phenyl)-6-ethylpyrimidine-2,4-diamine], the IC50 under setting [1] amounted to 16.9 ± 0.208 µM; the IC50 under setting [2] is 12.56 ± 0.103 µM; the IC50 under setting [3] amounted to 14.9 µM; the IC50 under setting [4] stood at 14.9 µM; the IC50 under setting [5] was determined as 15.2 ± 1.29 µM.

As to `COCCOCCc1nc(N)nc(N)c1-c1cccc(Cl)c1` [WCDD126, 5-(3-chlorophenyl)-6-(2-(2-methoxyethoxy)ethyl)pyrimidine-2,4-diamine], the IC50 runs as follows: under setting [1], 0.461 ± 0.017 µM; under setting [2], 0.397 ± 0.011 µM; under setting [3], 0.514 µM; under setting [4], 0.514 µM; under setting [5], 0.683 ± 0.002 µM.

With `CCc1nc(N)nc(N)c1-c1ccc2c(c1)CCC2` [WCDD119, 5-(2,3-dihydro-1H-inden-5-yl)-6-ethylpyrimidine-2,4-diamine], the IC50 reads like this: under setting [1], 0.614 ± 0.021 µM; under setting [2], 0.557 ± 0.03 µM; under setting [3], 0.5 µM; under setting [4], 0.57 µM; under setting [5], 0.552 ± 0.003 µM.

As for `CCc1nc(N)nc(N)c1-c1ccc(S(=O)(=O)N2CC3(COC3)C2)cc1` [WCDD107, 5-(4-((2-oxa-6-azaspiro[3.3]heptan-6-yl)sulfonyl)phenyl)-6-ethylpyrimidine-2,4-diamine], the IC50 is, setting by setting: under setting [3], > 20 µM; under setting [4], > 20 µM.

Take `CCc1nc(N)nc(NC)c1-c1ccc(Cl)cc1` [WCDD133a, 5-(4-chlorophenyl)-6-ethyl-N4-methylpyrimidine-2,4-diamine]: the IC50 under setting [3] is > 20 µM.

As to `C=CCCc1nc(N)nc(N)c1-c1cccc(C(F)(F)F)c1` [WCDD139, 6-(but-3-en-1-yl)-5-(3-(trifluoromethyl)phenyl)pyrimidine-2,4-diamine], the IC50 is, setting by setting: under setting [1], 0.206 ± 0.0014 µM; under setting [2], 0.097 ± 0.003 µM; under setting [3], 0.14 µM; under setting [4], 0.14 µM; under setting [5], 0.106 ± 0.003 µM.

On to `CCc1nc(NC)nc(NC)c1-c1ccc(Cl)cc1` [WCDD133, 5-(4-chlorophenyl)-6-ethyl-N2,N4-dimethylpyrimidine-2,4-diamine], for which the IC50 under setting [3] is > 20 µM.

For the compound `Nc1nc(N)c(-c2cccc(Cl)c2)c(CC2CCC2)n1` [WCDD127, 5-(3-chlorophenyl)-6-(cyclobutylmethyl)pyrimidine-2,4-diamine], the IC50 under setting [1] came to 0.469 ± 0.002 µM; the IC50 under setting [2] was determined as 0.454 ± 0.006 µM; the IC50 under setting [3] worked out at 0.456 µM; the IC50 under setting [4] was 0.456 µM; the IC50 under setting [5] stood at 0.444 ± 0.002 µM.

For the compound `CCc1ncnc(N)c1-c1cccc(Cl)c1` [WCDD125, 5-(3-chlorophenyl)-6-ethylpyrimidin-4-amine], the IC50 is, setting by setting: under setting [3], > 20 µM; under setting [4], > 20 µM.

As to `Nc1ncc(-c2cccc(Cl)c2)c(N)n1` [WCDD134, 5-(3-chlorophenyl)pyrimidine-2,4-diamine], the IC50 under setting [1] is 1.84 ± 0.196 µM; the IC50 under setting [2] worked out at 1.88 ± 0.024 µM; the IC50 under setting [3] was 1.43 µM; the IC50 under setting [4] amounted to 1.43 µM; the IC50 under setting [5] was 1.84 ± 0.196 µM.

For the compound `CCc1nc(N)nc(N)c1-c1ccc(N2CC3CC3C2)cc1` (stereo not shown) [WCDD110, 5-(4-(3-azabicyclo[3.1.0]hexan-3-yl)phenyl)-6-ethylpyrimidine-2,4-diamine], the IC50 was > 20 µM under setting [3] and > 20 µM under setting [4].

Regarding `C#CCCCc1nc(N)nc(N)c1-c1cccc(Cl)c1` [WCDD128, 5-(3-chlorophenyl)-6-(pent-4-yn-1-yl)pyrirnidine-2,4-diamine], the IC50 by setting is: under setting [1], 0.244 ± 0.006 µM; under setting [2], 0.163 ± 0.002 µM; under setting [3], 0.248 µM; under setting [4], 0.248 µM; under setting [5], 0.334 ± 0.004 µM.

For the compound `CCc1nc(N)nc(N)c1-c1cc(Cl)ccc1Cl` [WCDD120, 5-(2,5-dichlorophenyl)-6-ethylpyrimidine-2,4-diamine], the IC50 under setting [3] is > 10 µM and the IC50 under setting [4] is > 10 µM.

`CCc1nc(N)nc(N)c1-c1cccc(N2CCCC2)c1` [WCDD122, 6-ethyl-5-(3-(pyrrolidin-1-yl)phenyl)pyrimidine-2,4-diamine]: the IC50 was > 5 µM under setting [3] and > 5 µM under setting [4].

In the case of `CCc1nc(N)nc(N)c1-c1ccc(S(=O)(=O)C2CCCC2)cc1` [WCDD106, 5-(4-(cyclopentylsulfonyl)phenyl)-6-ethylpyrimidine-2,4-diamine], the IC50 under setting [3] was > 20 µM and the IC50 under setting [4] was > 20 µM.
